One experiment concerns mice. Nature of the experiment: Formalin test in mice. It is filed as in vivo. Conditions: 4.64 mg/kg, phase 2 (chronic pain), change versus vehicle control. How it is done:
The formalin test (Dubuisson, D. and Dennis, S. G., 1977, Pain, 4, 161-174) is a model for acute and chronic pain. A single formalin injection into the dorsal side of one rear paw is used to induce a biphase nociceptive response in experimental animals allowed to move freely, and the response is recorded by observation of three clearly distinguishable behaviour patterns. The response comprises two phases: phase 1=immediate response (duration up to 10 min; shaking of paw, licking), phase 2=delayed response (after a rest phase; likewise shaking of paw, licking; duration up to 60 min). […] In the experiments presented here the chronic pain component (phase 2) was evaluated.
Formalin is administered subcutaneously in a volume of 20 μl and a concentration of 1% into the dorsal side of the right rear paw of each animal. The specific behavioural changes, such as lifting, shaking or licking the paw (score 3, Dubuisson & Dennis, 1977), were observed and recorded during the observation period of 21 to 24 min after formalin injection. […]
Based on the quantification of the pain behaviour, the effect of the substance in the formalin test was determined as the change in comparison to the control as a percentage. […]

In another experiment the target is T1, KCNQ2/3 channels (Homo sapiens, UniProt O43525+O43526).
T1 construct: expressed in transfected cells; host or cells: CHO-K1
Nature of the experiment: Fluorescence assay using a voltage-sensitive dye (fluorimetry). It is filed as cell-based. Conditions: CHO-K1 cells expressing KCNQ2/3.

The values below come from patent publication US8247573B2, “Substituted N-(2-mercaptopyridin-3-yl)amides as KCNQ2/3 modulators” (Gruenenthal GmbH, priority 2009, dated 2012).

pEC50: −log10 of the molar value.

Broadly, the pEC50 is −log10 of the EC50, conventionally taken in molar units. Low values mean a high EC50, high ones a low EC50. Consider `O=C(Cc1cccs1)Nc1cccnc1SCCS(=O)(=O)c1cccc(C(F)(F)F)c1` [Example 3, 2-Thiophen-2-yl-N-[2-[2-[[3-(trifluoromethyl)phenyl]sulfonyl]-ethylsulfanyl]-pyridin-3-yl]acetamide], for which the “Formalin test in mice IV Effect @ dose [mg/kg]” value in the experiment with mice is on record as 87% @ 4.64. In addition, the pEC50 on KCNQ2/3 channels (agonistic activity) was 7.51. Moreover, on KCNQ2/3 channels (relative to retigabine = 100%, negative values = antagonistic, read-out: Fluorimetry % efficacy (I/EC50, retigabine = 100%)), the Emax came out at 164%.
